# Source: patent publication US11957684B2, “Treatment of heavy menstrual bleeding associated with uterine fibroids” (Sumitomo Pharma Switzerland GmbH, priority 2016, dated 2024)
# Values joined by “and” are separate entries in the source; they are usually repeats but may differ in a detail not shown here. Identical values can stand only once. Like-named read-outs stand apart in the source and are kept apart here.
# System: endometriosis-associated pain
# Assay type: in vivo, human
# Description: Subjects assessed and recorded their own quality of life (QOL) using the EHP-30 once a month during the study visit. As used in the examples, the VAS score was evaluated using a 100 mm scale. For pain intensity, the scale was anchored by “no pain” (score of 0) and “pain as bad as you can imagine” (score of 100). […] The above items were evaluated using a patient diary that was distributed by the sponsor. Subjects filled out the patient diary every day during the treatment period or until early termination. If taking prohibited analgesics, subjects recorded this fact in the patient diary along with the accompanying pain symptoms before use of analgesics. As used in the examples, pain during menstruation and pelvic pain unrelated to menstruation were evaluated using scores on the M-B&B and B&B. The M-B&B scores were recorded by subjects on the patient diary supplied by the sponsor. Subjects filled out the patient diary every day during the treatment period or until early termination. If taking prohibited analgesics, subjects recorded this fact in the patient diary along with the accompanying pain symptoms before use of analgesics. The investigator or subinvestigator assessed each patient's pain through interviews and filled out a B&B once a month. The items that were assessed are shown below. The M-B&B score included: dysmenorrhea (severe, moderate, mild, no pain, or no menstruation); pelvic pain (severe, moderate, mild, or no pain); deep dyspareunia (severe, moderate, mild, no pain, or no intercourse). The B&B score included: dysmenorrhea (severe, moderate, mild, none, or not applicable); dyspareunia (severe, moderate, mild, none, or not applicable); pelvic pain (severe, moderate, mild, or none); pelvic tenderness (severe, moderate, mild, or none); and induration (severe, moderate, mild, or none). As used in the examples, the EHP-30 score was obtained by subjects assessing and recording their own QOL using the EHP-30 questionnaire.
smiles,measurement,setting,value
"CONC(=O)Nc1ccc(-c2sc3c(c2CN(C)C)c(=O)n(-c2ccc(OC)nn2)c(=O)n3Cc2c(F)cccc2F)cc1 [Compound 1, N-(4-(1-(2,6-difluorobenzyl)-5-((dimethylamino)methyl)-3-(6-methoxy-3-pyridazinyl)-2,4-dioxo-1,2,3,4-tetrahydrothieno[2,3-d]pyrimidin-6-yl)phenyl)-N′-methoxyurea]","change from baseline in mean VAS, dysmenorrhea","10 mg, Day 1-28",−10.657±17.0824 mm
same,"change from baseline in mean VAS, dyspareunia","10 mg, Day 1-28",1.642±10.6212 mm
same,"change from baseline in mean VAS, pelvic pain","10 mg, Day 1-28",−4.606±7.1304 mm
same,"mean VAS score, dysmenorrhea","10 mg, Day 1-28",17.556±17.0427 mm
same,"mean VAS score, dyspareunia","10 mg, Day 1-28",9.608±15.4027 mm
same,"mean VAS score, pelvic pain","10 mg, Day 1-28",9.988±10.3249 mm
same,"change from baseline in mean VAS, dysmenorrhea","10 mg, Day 57-84",−14.747±16.8648 mm
same,"change from baseline in mean VAS, dyspareunia","10 mg, Day 57-84",−1.033±12.2047 mm
same,"change from baseline in mean VAS, pelvic pain","10 mg, Day 57-84",−6.282±9.1659 mm
same,"mean VAS score, dysmenorrhea","10 mg, Day 57-84",13.568±15.5954 mm
same,"mean VAS score, dyspareunia","10 mg, Day 57-84",10.110±18.5404 mm
same,"mean VAS score, pelvic pain","10 mg, Day 57-84",8.400±10.1329 mm
same,"change from baseline in mean VAS, dysmenorrhea","10 mg, Day 141-168",−15.191±17.6754 mm
same,"change from baseline in mean VAS, dyspareunia","10 mg, Day 141-168",−4.124±10.5641 mm
same,"change from baseline in mean VAS, pelvic pain","10 mg, Day 141-168",−7.872±11.2457 mm
same,"mean VAS score, dysmenorrhea","10 mg, Day 141-168",11.758±15.4431 mm
same,"mean VAS score, dyspareunia","10 mg, Day 141-168",5.550±11.1157 mm
same,"mean VAS score, pelvic pain","10 mg, Day 141-168",6.861±9.2099 mm
same,"change from baseline in EHP-30, control & powerlessness","10 mg, Week 24",−13.97±17.502
same,"change from baseline in EHP-30, emotional well-being","10 mg, Week 24",−8.38±15.918
same,"change from baseline in EHP-30, pain","10 mg, Week 24",−16.98±20.286
same,"change from baseline in EHP-30, social support","10 mg, Week 24",−7.52±10.840
same,"change from baseline in mean B&B score, dysmenorrhea","10 mg, Week 24",−1.0±0.87
same,"change from baseline in mean B&B score, dyspareunia","10 mg, Week 24",−0.3±0.67
same,"change from baseline in mean B&B score, pelvic pain","10 mg, Week 24",−0.8±0.79
same,"change from baseline in mean B&B score, pelvic tenderness","10 mg, Week 24",−0.7±0.83
same,"subjects without pain in B&B score, dysmenorrhea","10 mg, Week 24",27.8%
same,"subjects without pain in B&B score, dyspareunia","10 mg, Week 24",63.9%
same,"subjects without pain in B&B score, pelvic pain","10 mg, Week 24",30.4%
same,"subjects without pain in B&B score, pelvic tenderness","10 mg, Week 24",35.4%
same,"change from baseline in maximum M-B&B score, dysmenorrhea","10 mg, end of treatment",−0.7±1.01
same,"change from baseline in maximum M-B&B score, dyspareunia","10 mg, end of treatment",−0.2±0.69
same,"change from baseline in maximum M-B&B score, pelvic pain","10 mg, end of treatment",−0.7±0.94
same,"change from baseline in maximum VAS, dysmenorrhea","10 mg, end of treatment",−26.4±27.37 mm
same,"change from baseline in maximum VAS, dyspareunia","10 mg, end of treatment",−4.2±16.30 mm
same,"change from baseline in maximum VAS, pelvic pain","10 mg, end of treatment",−24.0±27.54 mm
same,"change from baseline in mean M-B&B score, deep dyspareunia","10 mg, end of treatment",−0.171±0.4683
same,"change from baseline in mean M-B&B score, dysmenorrhea","10 mg, end of treatment",−0.509±0.6675
same,"change from baseline in mean M-B&B score, pelvic pain","10 mg, end of treatment",−0.260±0.3624
same,"change from baseline in mean VAS, dysmenorrhea","10 mg, end of treatment",−15.356±18.0506 mm
same,"change from baseline in mean VAS, dyspareunia","10 mg, end of treatment",−3.454±10.8509 mm
same,"change from baseline in mean VAS, pelvic pain","10 mg, end of treatment",−6.849 mm and −6.849±10.5616 mm
same,change from baseline in mean score of amount of bleeding (0 to 5),"10 mg, end of treatment",−0.529±1.2185
same,change from baseline in proportion of days with usage of pain killer,"10 mg, end of treatment",−6.32±9.817%
same,"change in proportion of days without pain (M-B&B), deep dyspareunia","10 mg, end of treatment",8.32±35.972%
same,"change in proportion of days without pain (M-B&B), dysmenorrhea","10 mg, end of treatment",29.55±42.700%
same,"change in proportion of days without pain (M-B&B), pelvic pain","10 mg, end of treatment",17.18±26.101%
same,"change in proportion of days without pain (VAS), dysmenorrhea","10 mg, end of treatment",29.28±43.277%
same,"change in proportion of days without pain (VAS), dyspareunia","10 mg, end of treatment",9.72±38.401%
same,"change in proportion of days without pain (VAS), pelvic pain","10 mg, end of treatment",17.90±24.924%
same,"mean VAS score, dyspareunia","10 mg, end of treatment",6.218±10.6280 mm
same,"mean VAS score, pelvic pain","10 mg, end of treatment",7.746±9.0900 mm
same,subjects who achieved amenorrhea,"10 mg, end of treatment",22.3%
same,"subjects without pain in M-B&B score, dysmenorrhea","10 mg, end of treatment",27.2%
same,"subjects without pain in M-B&B score, dyspareunia","10 mg, end of treatment",56.0%
same,"subjects without pain in M-B&B score, pelvic pain","10 mg, end of treatment",24.3%
same,"subjects without pain in VAS score, dysmenorrhea","10 mg, end of treatment",27.2%
same,"subjects without pain in VAS score, dyspareunia","10 mg, end of treatment",48.0%
same,"subjects without pain in VAS score, pelvic pain","10 mg, end of treatment",6.8% and 7%
same,"change from baseline in mean VAS, dysmenorrhea","20 mg, Day 1-28",−9.158±16.6375 mm
same,"change from baseline in mean VAS, pelvic pain","20 mg, Day 1-28",−3.962±6.6751 mm
same,"mean VAS score, dysmenorrhea","20 mg, Day 1-28",18.545±19.2141 mm
same,"mean VAS score, dyspareunia","20 mg, Day 1-28",10.809±15.5738 mm
same,"mean VAS score, pelvic pain","20 mg, Day 1-28",11.627±14.7324 mm
same,"change from baseline in mean VAS, dysmenorrhea","20 mg, Day 57-84",−20.689±21.4387 mm
same,"change from baseline in mean VAS, dyspareunia","20 mg, Day 57-84",−0.191±10.6032 mm
same,"change from baseline in mean VAS, pelvic pain","20 mg, Day 57-84",−8.547±13.8568 mm
same,"mean VAS score, dysmenorrhea","20 mg, Day 57-84",6.626±13.5146 mm
same,"mean VAS score, dyspareunia","20 mg, Day 57-84",9.229±16.6530 mm
same,"mean VAS score, pelvic pain","20 mg, Day 57-84",6.675±10.8072 mm
same,"change from baseline in mean VAS, dysmenorrhea","20 mg, Day 141-168",−19.860±19.1617 mm
same,"change from baseline in mean VAS, dyspareunia","20 mg, Day 141-168",−4.012±12.5050 mm
same,"change from baseline in mean VAS, pelvic pain","20 mg, Day 141-168",−8.678±10.6479 mm
same,"mean VAS score, dysmenorrhea","20 mg, Day 141-168",6.132±13.2012 mm
same,"mean VAS score, dyspareunia","20 mg, Day 141-168",3.806±8.9781 mm
same,"mean VAS score, pelvic pain","20 mg, Day 141-168",5.486±9.1562 mm
same,"change from baseline in EHP-30, Self-image","20 mg, Week 24",−10.59±15.256
same,"change from baseline in EHP-30, control & powerlessness","20 mg, Week 24",−20.04±21.880
same,"change from baseline in EHP-30, emotional well-being","20 mg, Week 24",−15.37±17.858
same,"change from baseline in EHP-30, pain","20 mg, Week 24",−20.58±19.650
same,"change from baseline in EHP-30, social support","20 mg, Week 24",−13.44±17.055
same,"change from baseline in mean B&B score, dysmenorrhea","20 mg, Week 24",−1.5±0.94
same,"change from baseline in mean B&B score, dyspareunia","20 mg, Week 24",−0.4±0.70
same,"change from baseline in mean B&B score, pelvic pain","20 mg, Week 24",−0.9±0.85
same,"change from baseline in mean B&B score, pelvic tenderness","20 mg, Week 24",−0.8±0.79
same,"subjects without pain in B&B score, dysmenorrhea","20 mg, Week 24",64.9%
same,"subjects without pain in B&B score, dyspareunia","20 mg, Week 24",53.6%
same,"subjects without pain in B&B score, pelvic pain","20 mg, Week 24",39.2%
same,"subjects without pain in B&B score, pelvic tenderness","20 mg, Week 24",37.8%
same,"change from baseline in maximum M-B&B score, dysmenorrhea","20 mg, end of treatment",−1.4±1.12
same,"change from baseline in maximum M-B&B score, dyspareunia","20 mg, end of treatment",−0.3±0.59
same,"change from baseline in maximum M-B&B score, pelvic pain","20 mg, end of treatment",−0.7±0.79
same,"change from baseline in maximum VAS, dyspareunia","20 mg, end of treatment",−7.0±15.29 mm
same,"change from baseline in maximum VAS, pelvic pain","20 mg, end of treatment",−33.3±30.14 mm
